Test results published in the NIST ThermoML archive (doi:10.1021/je050358g).

Conditions: Liquid, vibrating tube

CCCCCCCCCCCCCC[P+](CCCCCC)(CCCCCC)CCCCCC.O=S(=O)([N-]S(=O)(=O)C(F)(F)F)C(F)(F)F
mass density [kg/m3]
Conditions | 298.15 K | 303.25 K | 308.15 K | 318.27 K | 323.33 K | 328.39 K | 333.43 K
210 kPa | 1066.62 | 1062.61 | 1058.87 | 1051.54 | 1047.84 | 1044.49 | 1041.15
540 kPa | 1066.84 | 1062.85 | 1059.07 | 1051.79 | 1048.07 | 1044.74 | 1041.43
1000 kPa | 1067.13 | 1063.14 | 1059.37 | 1052.1 | 1048.38 | 1045.08 | 1041.76
3000 kPa | 1068.44 | 1064.47 | 1060.76 | 1053.49 | 1049.81 | 1046.53 | 1043.19
5010 kPa | 1069.7 | 1065.77 | 1062.11 | 1054.88 | 1051.24 | 1047.96 | 1044.61
7500 kPa | 1071.3 | 1067.39 | 1063.74 | 1056.54 | 1052.94 | 1049.68 | 1046.4
9990 kPa | 1072.85 | 1068.97 | 1065.36 | 1058.2 | 1054.64 | 1051.4 | 1048.13
15010 kPa | 1075.88 | 1072.09 | 1068.53 | 1061.47 | 1057.95 | 1054.74 | 1051.51
19990 kPa | 1078.82 | 1075.07 | 1071.57 | 1064.6 | 1061.14 | 1057.9 | 1054.8
25010 kPa | 1081.69 | 1078 | 1074.54 | 1067.62 | 1064.22 | 1061.01 | 1057.94
29990 kPa | 1084.45 | 1080.84 | 1077.42 | 1070.51 | 1067.21 | 1064.03 | 1060.97
35010 kPa | 1087.15 | 1083.56 | 1080.23 | 1073.32 | 1070.14 | 1066.99 | 1063.96
40000 kPa | 1089.79 | 1086.26 | 1082.95 | 1076.09 | 1072.99 | 1069.88 | 1066.84
45010 kPa | 1092.36 | 1088.87 | 1085.64 | 1078.77 | 1075.75 | 1072.64 | 1069.67
50000 kPa | 1094.88 | 1091.44 | 1088.25 | 1081.37 | 1078.47 | 1075.39 | 1072.43
55010 kPa | 1097.34 | 1093.95 | 1090.8 | 1084 | 1081.14 | 1078.08 | 1075.17
59990 kPa | 1099.74 | 1096.39 | 1093.3 | 1086.5 | 1083.74 | 1080.67 | 1077.73
65010 kPa | 1102.11 | 1098.81 | 1095.75 | 1088.91 | 1086.3 | 1083.24 | 1080.29

CC(=O)[O-].CCCCCCCCCCCCCC[P+](CCCCCC)(CCCCCC)CCCCCC [trihexyl(tetradecyl)phosphonium acetate]
mass density [kg/m3]
Conditions | 298.15 K | 303.15 K | 307.97 K | 313.07 K | 317.74 K | 323.96 K | 329.14 K | 334.11 K
210 kPa | 890.6 | 887.54 | 884.7 | 881.57 | 878.87 | 875.25 | 872.15 | 869.21
540 kPa | 890.77 | 887.71 | 884.86 | 881.77 | 879.06 | 875.43 | 872.35 | 869.41
1000 kPa | 891.01 | 887.96 | 885.13 | 882.02 | 879.32 | 875.7 | 872.61 | 869.67
3000 kPa | 892.04 | 889.03 | 886.22 | 883.14 | 880.46 | 876.87 | 873.78 | 870.81
5010 kPa | 893.09 | 890.08 | 887.29 | 884.26 | 881.6 | 878 | 874.92 | 871.98
7500 kPa | 894.35 | 891.38 | 888.6 | 885.61 | 882.99 | 879.4 | 876.33 | 873.42
9990 kPa | 895.56 | 892.64 | 889.9 | 886.96 | 884.32 | 880.77 | 877.71 | 874.78
15010 kPa | 897.96 | 895.15 | 892.45 | 889.57 | 886.95 | 883.42 | 880.41 | 877.5
19990 kPa | 900.29 | 897.52 | 894.88 | 892.06 | 889.47 | 885.99 | 883 | 880.11
25010 kPa | 902.57 | 899.86 | 897.23 | 894.49 | 891.91 | 888.48 | 885.53 | 882.67
29990 kPa | 904.74 | 902.08 | 899.51 | 896.77 | 894.26 | 890.86 | 887.95 | 885.12
35010 kPa | 906.9 | 904.28 | 901.72 | 899.05 | 896.54 | 893.19 | 890.32 | 887.57
40020 kPa | 908.99 | 906.41 | 903.88 | 901.21 | 898.76 | 895.47 | 892.64 | 889.93
45010 kPa | 911.02 | 908.45 | 905.95 | 903.32 | 900.88 | 897.65 | 894.88 | 892.22
49990 kPa | 912.98 | 910.44 | 907.95 | 905.38 | 902.96 | 899.78 | 897.06 | 894.45
55000 kPa | 914.91 | 912.4 | 909.92 | 907.36 | 904.98 | 901.85 | 899.19 | 896.66
59990 kPa | 916.81 | 914.31 | 911.84 | 909.27 | 906.93 | 903.86 | 901.27 | 898.81
65010 kPa | 918.66 | 916.16 | 913.69 | 911.16 | 908.84 | 905.84 | 903.3 | 900.91

CCCCCCCCCCCCCC[P+](CCCCCC)(CCCCCC)CCCCCC.[Cl-] [trihexyl(tetradecyl)phosphonium chloride]
mass density [kg/m3]
Conditions | 298.13 K | 303.15 K | 308.13 K | 313.15 K | 318.15 K | 323.14 K | 328.16 K | 333.14 K
190 kPa | 891.62 | 888.51 | 885.65 | 882.72 | 879.82 | 876.69 | 873.88 | 870.88
1000 kPa | 892.02 | 888.97 | 886.07 | 883.19 | 880.27 | 877.16 | 874.33 | 871.36
3000 kPa | 893.07 | 890.03 | 887.18 | 884.3 | 881.41 | 878.29 | 875.5 | 872.51
5010 kPa | 894.09 | 891.06 | 888.26 | 885.4 | 882.52 | 879.43 | 876.64 | 873.64
7500 kPa | 895.36 | 892.35 | 889.57 | 886.75 | 883.89 | 880.82 | 878.05 | 875.05
10000 kPa | 896.59 | 893.6 | 890.87 | 888.06 | 885.24 | 882.18 | 879.42 | 876.42
15010 kPa | 899.02 | 896.1 | 893.38 | 890.63 | 887.86 | 884.84 | 882.11 | 879.11
19990 kPa | 901.33 | 898.48 | 895.82 | 893.11 | 890.37 | 887.38 | 884.69 | 881.72
25010 kPa | 903.6 | 900.78 | 898.17 | 895.49 | 892.81 | 889.86 | 887.2 | 884.25
29990 kPa | 905.77 | 903.01 | 900.42 | 897.81 | 895.15 | 892.24 | 889.62 | 886.71
35010 kPa | 907.93 | 905.17 | 902.63 | 900.04 | 897.43 | 894.57 | 891.98 | 889.11
39990 kPa | 910.01 | 907.28 | 904.75 | 902.21 | 899.63 | 896.82 | 894.24 | 891.46
45010 kPa | 912.05 | 909.34 | 906.82 | 904.32 | 901.78 | 899.01 | 896.49 | 893.73
50000 kPa | 914.03 | 911.34 | 908.83 | 906.35 | 903.87 | 901.13 | 898.62 | 895.96
55000 kPa | 915.93 | 913.27 | 910.78 | 908.34 | 905.9 | 903.19 | 900.74 | 898.14
59990 kPa | 917.83 | 915.17 | 912.67 | – | 907.87 | 905.21 | 902.79 | 900.26
65000 kPa | 919.63 | 916.99 | 914.51 | – | 909.78 | 907.16 | 904.8 | 902.35
